Values of other authors as cited in patent publication US20260356885A1, “PROCESS FOR MANUFACTURING AN ANTIBIOTIC MACROCYCLIC PEPTIDE” (Hoffmann-La Roche Inc., priority 2022, published 2026).

Test system: Acinetobacter baumannii
Settings: statement in words, as discussed in WO2019206853; no test or value given

CN1C(=O)[C@H](CCCCN)NC(=O)[C@H](CCCN)NCc2cccnc2Sc2cccc(-c3ccc(C(=O)O)cc3)c2CNC(=O)[C@@H]1Cc1c[nH]c2ccccc12 [compound of formula (I), 4-[(11S,14S,17S)-14-(4-Aminobutyl)-11-(3-aminopropyl)-17-(1H-indol-3-ylmethyl)-16-methyl-12,15,18-trioxo-2-thia-4, 10, 13, 16, 19-pentazatricyclo[19.4.0.03,8]pentacosa-1 (25),3 (8), 4,6,21,23-hexaen-22-yl]benzoic acid]
antibiotic action, selective against Acinetobacter baumannii: potent antibiotic with selective action against Acinetobacter baumannii
